# Patent US20260217698A1 (BEYANG THERAPEUTICS CO., LTD., priority 2022, published 2026)
# Columns and labels:
# [1] = tested on: melanin; test: Binding capacity of compounds to melanin; format: in vitro ADME, cuttlefish (Sepia officinalis); settings: cuttlefish (Sepia officinalis), melanin suspension (1 mg/mL); 1 mg/mL melanin in PBS pH 7.4, 2 μM compound, 2 h at 37° C.; read-out: Fu % (percentage of free drug)
# Source text: Pigmented eye tissues contain melanin in intracellular melanosomes. Drugs bind to melanin to varying degrees, ranging from non-binding to extensive binding. Therefore, melanin binding is an important feature that affects drug delivery and biodistribution in the eye. The binding capacity of the compound to the melanin must be considered in the development of ophthalmic drugs.
# Melanin was derived from the melanin of cuttlefish (Sepia officinalis) and was commercially available from Sigma Aldrich (St Louis, MO).
# First, prepare 1 mg/mL melanin suspension with PBS (pH 7.4). As a washing step for the matrix, centrifuge the suspended particles for 5 min at 3000 rpm. Resuspend the resulting particles in a fresh PBS buffer, heat to 37° C. over continuous shaking and incubate it for 1 h. Accurately pipette 2 μL of the test stock solution (0.1 mM) into 98 μL of melanin suspension (1 mg/mL) to achieve a final incubation concentration of 2 μM. Similarly, accurately pipette 2 μL of the stock solution (0.1 mM) to 98 μL of PBS buffer (containing 0.1% BSA) as a blank control sample. Incubate the samples in a shaker (80-90 rpm) for 2 h at 37° C. Then, centrifuge the samples at room temperature. Pipette 50 μL of the supernatant and add 50 μL of precipitant (containing an internal standard). After protein precipitation of all the above samples, centrifuge the samples to collect the supernatants, dilute the supernatants with water (if necessary) and inject them for analysis. At the same time, measure the positive controls, including the high-binding compounds Sunitinib and chloroquine and the low-binding compound celecoxib. Establish an LC-MS/MS method for determining compound concentrations, and calibrate the peak area ratio of analyte/internal standard (Analyte/AIS) in the measured sample by the dilution factor to take it as an alternative concentration for the sample for data processing. The binding rate (Fb) of a compound in melanin was calculated as: […]
# Ctest was the concentration of the compound in the melanin-incubated sample or the peak area ratio of the test compound to the internal standard. Ccontrol was the concentration of the compound in the blank control sample or the peak area ratio of the test compound to the internal standard. […]
# [2] = target: T1, EGFR (Homo sapiens, UniProt P00533); test: Kinase inhibition, Mobility Shift Assay/IMAP, EGFR; format: biochemical
# T1 construct: purchased Carna 08-115
# Source text: (§1) This assay directly monitored the ability of compounds to inhibit kinase phosphorylation by measuring non-phosphorylated and phosphorylated substrates in kinase reactions by using Mobility Shift Assays/IMAP™ analysis.
# (§2) Read the conversion ratio data on CaliperEZ Reader II. Convert conversion rates into inhibition ratio data.
# (§3) “Min” indicates the readout of the control well without the addition of enzymes; and “Max” indicates the readout of the control well with the addition of DMSO Fit IC50 values with XL Fit excel add-in version […].
# (§4) X indicates the log value of compound concentration, and Y indicates the inhibition ratio (% inhibition).
# [3] = target: VEGFR2 (Homo sapiens, UniProt P35968); test: Kinase inhibition, Mobility Shift Assay/IMAP, VEGFR2; format: biochemical; parameters: purchased Carna 08-191
# Source text: as §1, §2, §3, §4
# VEGFR2, sequence (P35968 790-1356 limits assumed): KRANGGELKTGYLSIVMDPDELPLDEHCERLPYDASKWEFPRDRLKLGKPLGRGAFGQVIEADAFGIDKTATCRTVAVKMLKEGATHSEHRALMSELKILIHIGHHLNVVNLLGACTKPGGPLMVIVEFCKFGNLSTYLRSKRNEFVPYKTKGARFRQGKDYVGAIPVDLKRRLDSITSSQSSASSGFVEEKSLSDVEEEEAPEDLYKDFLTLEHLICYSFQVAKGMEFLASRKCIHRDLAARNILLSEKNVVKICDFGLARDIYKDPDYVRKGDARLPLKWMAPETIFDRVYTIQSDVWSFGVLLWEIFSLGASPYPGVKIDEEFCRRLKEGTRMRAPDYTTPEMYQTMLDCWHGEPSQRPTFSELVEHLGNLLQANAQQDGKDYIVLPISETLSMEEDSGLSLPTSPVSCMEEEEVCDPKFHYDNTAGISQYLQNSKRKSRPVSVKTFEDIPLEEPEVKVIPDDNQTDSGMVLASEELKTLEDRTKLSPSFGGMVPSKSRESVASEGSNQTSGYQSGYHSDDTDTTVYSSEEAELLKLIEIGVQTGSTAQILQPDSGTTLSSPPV
# T1 sequence (P00533 669-1210 limits assumed): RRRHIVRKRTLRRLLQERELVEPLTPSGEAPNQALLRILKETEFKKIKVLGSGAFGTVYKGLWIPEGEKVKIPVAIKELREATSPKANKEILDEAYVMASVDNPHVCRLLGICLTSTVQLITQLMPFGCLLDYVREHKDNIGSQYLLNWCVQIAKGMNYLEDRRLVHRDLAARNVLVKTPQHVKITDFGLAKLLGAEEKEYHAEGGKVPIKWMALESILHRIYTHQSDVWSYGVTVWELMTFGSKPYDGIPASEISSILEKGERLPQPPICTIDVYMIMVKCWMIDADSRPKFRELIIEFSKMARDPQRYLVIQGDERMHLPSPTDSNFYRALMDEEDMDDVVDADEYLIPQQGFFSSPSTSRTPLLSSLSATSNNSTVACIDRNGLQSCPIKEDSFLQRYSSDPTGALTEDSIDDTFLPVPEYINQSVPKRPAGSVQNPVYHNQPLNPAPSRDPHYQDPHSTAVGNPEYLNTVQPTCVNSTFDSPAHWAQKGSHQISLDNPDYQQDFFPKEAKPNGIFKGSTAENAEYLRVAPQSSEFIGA
SMILES,"fraction unbound at 2 h, 2 μM [1]",IC50 [2] [nM],IC50 [3] [nM]
"NC(=O)c1c(OCc2cc(C(=O)NC3CC3)ccc2F)nsc1NC(=O)NCCCN1CC[C@@H](O)C1 [Compound T106, 3-[[5-(cyclopropylcarbamoyl)-2-fluoro-phenyl]methoxy]-5-[3-[(3R)-3-hydroxypyrrolidin-1-yl]propylcarbamoylamino]isothiazole-4-carboxamide]",0.0172,20100,1.64
NC(=O)c1c(OCc2cc(C(=O)NC3CC3)ccc2F)nsc1NC(=O)NCCCCN1CC[C@H](O)C1 [Compound T099],0.0884,,
"NC(=O)c1c(OCc2cccc(OC3CC3)c2)nsc1NC(=O)NCCCCN1CCCC1 [Compound T003, 3-((3-cyclopropoxybenzyl)oxy)-5-(3-(4-(pyrrolidin-1-yl)butyl)ureido)isothiazole-4-carboxamide]",,,112
"CN1CCN(CCCNC(=O)Nc2snc(OCc3cccc(C(=O)CC4CC4)c3)c2C(N)=O)CC1 [Compound T110, 3-[[3-(2-cyclopropylacetyl)phenyl]methoxy]-5-[3-(4-methylpiperazin-1-yl)propylcarbamoylamino]isothiazole-4-carboxamide]",0.0485,,
CC(C)(C)OC(=O)N1CCN(CCn2cc(Nc3snc(OCc4c(F)cc(Br)cc4F)c3C(N)=O)cn2)CC1 [Compound T046],,,62
"Cc1cc(COc2nsc(NC(=O)NCCCCN3CCCC3)c2C(N)=O)nn1C [Compound T009, 3-((1,5-dimethyl-1H-pyrazol-3-yl)methoxy)-5-(3-(4-(pyrrolidin-1-yl)butyl)ureido)isothiazole-4-carboxamide]",,,217
"Cn1ncc2c(COc3nsc(NC(=O)NCCCCN4CCCC4)c3C(N)=O)cccc21 [Compound T004, 3-((1-methyl-1H-indazol-4-yl)methoxy)-5-(3-(4-(pyrrolidin-1-yl)butyl)ureido)isothiazole-4-carboxamide]",,,163
"CCOc1ccc(F)c(COc2nsc(NC(=O)NCCCCN3CCCC3)c2C(N)=O)c1 [Compound T096, 3-((5-ethoxy-2-fluorobenzyl)oxy)-5-(3-(4-(pyrrolidin-1-yl)butyl)ureido)isothiazole-4-carboxamide]",0.0792,,
"CC(C)NC(=O)c1cccc(COc2nsc(NC(=O)NCCCCN3CCCC3)c2C(N)=O)c1 [Compound T057, 3-((3-(isopropylcarbamoyl)benzyl)oxy)-5-(3-(4-(pyrrolidin-1-yl)butyl)ureido)isothiazole-4-carboxamide]",,> 60000,152
"COc1cccc(COc2nsc(NC(=O)NCCCCN3CCCC3)c2C(N)=O)c1OC [Compound T032, 3-((2,3-dimethoxybenzyl)oxy)-5-(3-(4-(pyrrolidin-1-yl)butyl)ureido)isothiazole-4-carboxamide]",,39600,56.8
"NC(=O)c1c(OCc2ccc3c(c2)OCCC3)nsc1NC(=O)NCCCCN1CCCC1 [Compound T097, 3-(chroman-7-ylmethoxy)-5-(4-pyrrolidin-1-ylbutylcarbamoylamino)isothiazole-4-carboxamide]",0.0817,,
"Cn1nc(COc2nsc(NC(=O)NCCCCN3CCCC3)c2C(N)=O)c2ccccc21 [Compound T002, 3-((1-methyl-1H-indazol-3-yl)methoxy)-5-(3-(4-(pyrrolidin-1-yl)butyl)ureido)isothiazole-4-carboxamide]",,,130

# The remaining lines, values ahead:
"fraction unbound at 2 h, 2 μM [1]",IC50 [2] [nM],IC50 [3] [nM],SMILES
,,1.12,"NC(=O)c1c(OCc2cc(C(=O)NC3CC3)ccc2F)nsc1NC(=O)NCCCO [Compound T170, 3-[[5-(cyclopropylcarbamoyl)-2-fluoro-phenyl]methoxy]-5-(3-hydroxypropylcarbamoylamino)isothiazole-4-carboxamide]"
,12200,1.25,"CCN1CCN(CCCNC(=O)Nc2snc(OCc3ccc(F)c(C(=O)NC4CC4)c3)c2C(N)=O)CC1 [Compound T164, 3-[[3-(cyclopropylcarbamoyl)-4-fluoro-phenyl]methoxy]-5-[3-(4-ethylpiperazin-1-yl)propylcarbamoylamino]isothiazole-4-carboxamide]"
,5910,1.97,"CC(C)(C)OC(=O)CCNC(=O)Nc1snc(OCc2cc(C(=O)NC3CC3)ccc2F)c1C(N)=O [Compound T173, Tert-butyl 3-[[4-carbamoyl-3-[[5-(cyclopropylcarbamoyl)-2-fluoro-phenyl]methoxy]isothiazol-5-yl]carbamoylamino]propanoate]"
,31000,6.6,"COc1cc(F)c(F)c(COc2nsc(NC(=O)NCCCCN3CCCC3)c2C(N)=O)c1F [Compound T142, 5-(4-pyrrolidin-1-ylbutylcarbamoylamino)-3-[(2,3,6-trifluoro-5-methoxy-phenyl)methoxy]isothiazole-4-carboxamide]"
,15200,2.5,"CC(=O)N1CCN(CCCNC(=O)Nc2snc(OCc3ccc(F)c(C(=O)NC4CC4)c3)c2C(N)=O)CC1 [Compound T157, 5-[3-(4-acetylpiperazin-1-yl)propylcarbamoylamino]-3-[[3-(cyclopropylcarbamoyl)-4-fluoro-phenyl]methoxy]isothiazole-4-carboxamide]"
,7420,1.2,"NC(=O)c1c(OCc2ccc(F)c(C(=O)NC3CC3)c2)nsc1NC(=O)NCCCCN1CC[C@@H](O)C1 [Compound T150, 3-[[3-(cyclopropylcarbamoyl)-4-fluoro-phenyl]methoxy]-5-[4-[(3R)-3-hydroxypyrrolidin-1-yl]butylcarbamoylamino]isothiazole-4-carboxamide]"
,,1.44,"CC(=O)N1CCN(CCCNC(=O)Nc2snc(OCc3cc(C(=O)NC4CC4)ccc3F)c2C(N)=O)CC1 [Compound T156, 5-[3-(4-acetylpiperazin-1-yl)propylcarbamoylamino]-3-[[5-(cyclopropylcarbamoyl)-2-fluoro-phenyl]methoxy]isothiazole-4-carboxamide]"
,8770,41.7,"NC(=O)c1c(OCc2cc(C(=O)NC3CC3)ccc2F)nsc1N [Compound T159, 5-amino-3-[[5-(cyclopropylcarbamoyl)-2-fluoro-phenyl]methoxy]isothiazole-4-carboxamide]"
,,0.95,"NCCCNC(=O)Nc1snc(OCc2cc(C(=O)NC3CC3)ccc2F)c1C(N)=O [Compound T167, 5-(3-aminopropylcarbamoylamino)-3-[[5-(cyclopropylcarbamoyl)-2-fluoro-phenyl]methoxy]isothiazole-4-carboxamide]"
,,8.45,"NC(=O)c1ccc(F)c(COc2nsc(NC(=O)NCCCN3CC[C@H](F)C3)c2C(N)=O)c1 [Compound T168, 3-[(5-carbamoyl-2-fluoro-phenyl)methoxy]-5-[3-[(3S)-3-fluoropyrrolidin-1-yl]propylcarbamoylamino]isothiazole-4-carboxamide]"
,,0.66,"NC(=O)c1c(OCc2cc(C(=O)NC3CC3)ccc2F)nsc1NC(=O)NCCCN1CCNCC1 [Compound T153, 3-[[5-(cyclopropylcarbamyl)-2-fluoro-phenyl]methoxy]-5-(3-piperazin-1-ylpropylcarbamylamino)isothiazol-4-formamide]"
,4010,16,"NC(=O)c1c(OCc2c(F)ccc(OC(F)F)c2F)nsc1NC(=O)NCCCCN1CCCC1 [Compound T148, 3-[[3-(difluoromethoxy)-2,6-difluoro-phenyl]methoxy]-5-(4-pyrrolidin-1-ylbutylcarbamoylamino)isothiazole-4-carboxamide]"
,31600,1.46,"NC(=O)c1c(OCc2ccc(F)c(C(=O)NC3CC3)c2)nsc1NC(=O)NCCCN1CCN(C2CC2)CC1 [Compound T165, 3-[[3-(cyclopropylcarbamoyl)-4-fluoro-phenyl]methoxy]-5-[3-(4-cyclopropylpiperazin-1-yl)propylcarbamoylamino]isothiazole-4-carboxamide]"
,11200,0.32,"CCN1CCN(CCCNC(=O)Nc2snc(OCc3cc(C(=O)NC4CC4)ccc3F)c2C(N)=O)CC1 [Compound T163, 3-[[5-(cyclopropylcarbamoyl)-2-fluoro-phenyl]methoxy]-5-[3-(4-ethylpiperazin-1-yl)propylcarbamoylamino]isothiazole-4-carboxamide]"
